The target in this assay is T1, human chymase (Homo sapiens, UniProt P23946).
T1 construct: 60 g human tonsillar gland was finely divided by scissors and a scalpel; from tissue; host or cells: human tonsillar gland
T1 sequence (P23946 22-247): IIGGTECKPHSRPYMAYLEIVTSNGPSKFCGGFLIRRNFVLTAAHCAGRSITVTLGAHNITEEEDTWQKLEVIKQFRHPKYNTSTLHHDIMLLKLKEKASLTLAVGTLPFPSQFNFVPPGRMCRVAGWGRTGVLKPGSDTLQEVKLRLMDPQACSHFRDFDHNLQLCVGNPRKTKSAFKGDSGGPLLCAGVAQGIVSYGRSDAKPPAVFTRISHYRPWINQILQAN
The assay is described as follows: inhibitory activity on human chymase (angiotensin I as substrate, angiotensin II determined by HPLC). It counts as biochemical. Conditions: for inhibitory activity on chymase (in words): chymase species not given; for IC50: first table, pH 8.0, 37° C., 15 min, read-out: 50% Inhibitory concentration (IC50) human chymase. An excerpt: It is known that chymase is present in tissues of various animals, and its isolation and purification methods are described in Anal. Biochem., 137, 449 (1984) and FEBS Letters, 323, 119 (1993). In the present invention, chymase was purified by the methods described in these literatures, and the present compounds were examined for inhibitory activity on human chymase or dog chymase. The specific methods are as follows:
60 g human tonsillar gland was finely divided by scissors and a scalpel, suspended in 0.1 M phosphate buffer (pH 8.0), and disrupted by a Polytron homogenizer for 5 minutes to prepare a crude chymase enzyme solution. The solution was centrifuged at 22000×g for 30 min, and the precipitate was used as a chymase enzyme fraction. The precipitate was washed by repeating the above procedure twice, and then suspended in 0.1 M phosphate buffer (pH 8.0) containing 2 M sodium chloride and 5% ammonium sulfate. The suspension was centrifuged at 27000×g for 20 min to give a supernatant as a chymase fraction. The supernatant was concentrated by ultrafiltration, applied to a G2000SW-XL column (6.0×300 mm), and eluted with 0.1 M phosphate buffer (pH 8.0). An active fraction decomposing succinyl leucyl leucyl valyl tyrosyl methylcoumarylamide (hereinafter referred to as the synthetic chymase substrate, made by Peptide Kenkyusho) was recovered, concentrated and used as a purified human chymase for the following activity measurement.
The inhibitory activity on the human chymase and dog chymase was measured using angiotensin I (made by Peptide Kenkyusho) for a substrate. 200 μl of 0.15 M Tris-HCl buffer (pH 8.0) containing 0.1 mM angiotensin I, 0.0002 μl of human or dog chymase solution and 2 μl of a dimethylsulfoxide solution of the present compound were added into a 1.5 ml test tube and incubated at 37° C. for 15 min. At the end of the reaction, produced angiotensin II was immediately determined by high performance liquid chromatography […] the chymase activity to calculate 50% inhibitory concentration (IC50: nM).
The test was conducted several times. Chymase was prepared for each test in the manner described above. The compounds prepared in the above-described Examples were used for the test.

For `CC(=O)OCc1cnc(-c2ccccc2)n(CC(=O)NC(Cc2ccccc2)C(=O)C(=O)CCCOc2ccccn2)c1=O` (stereo not shown) [Compound 1, 2-(5-acetyloxymethyl-4-oxo-2-phenyl-3,4-dihydro-pyrimidin-3-yl)-N-{2,3-dioxo-1-phenylmethyl-6-(2-pyridyloxy)}hexylacetamide], the “inhibitory activity on chymase (in words)” value is “powerful inhibitory activity on chymase” and the IC50 was 26 nM.
The corresponding values for `O=C(Cn1c(-c2ccccc2)ncc(CO)c1=O)NC(Cc1ccccc1)C(=O)C(=O)CCCOc1ccccn1` (stereo not shown) [Compound 2, 2-(5-hydroxymethyl-4-oxo-2-phenyl-3,4-dihydropyrimidin-3-yl)-N-{2,3-dioxo-1-phenylmethyl-6-(2-pyridyloxy)} hexylacetamide] are “powerful inhibitory activity on chymase” and 27 nM.
In the case of `COCc1cnc(-c2ccccc2)n(CC(=O)NC(Cc2ccccc2)C(=O)C(=O)CCCOc2ccccn2)c1=O` (stereo not shown) [Compound 3, 2-(5-methoxymethyl-4-oxo-2-phenyl-3,4-dihydropyrimidin-3-yl)-N-{2,3-dioxo-1-phenylmethyl-6-(2-pyridyloxy)} hexylacetamide], the “inhibitory activity on chymase (in words)” value is reported as “powerful inhibitory activity on chymase” and the IC50 came to 22 nM.
With `CCOC(=O)c1cnc(-c2ccccc2)n(CC(=O)NC(Cc2ccccc2)C(=O)C(=O)CCCOc2ccccn2)c1=O` (stereo not shown) [Compound 4, 2-(5-ethoxycarbonyl-4-oxo-2-phenyl-3,4-dihydro-pyrimidin-3-yl)-N-{2,3-dioxo-1-phenylmethyl-6-(2-pyridyl-oxy)}hexylacetamide], the IC50 amounted to 490 nM.

The values above are taken from US6300337A, “Acetamide derivative and use thereof” (Nippon Kayaku Kabushiki Kaisha, priority 1998, dated 2001).
